Assay results as given in US11773127B2, “Compounds and methods for treating bacterial infections” (Washington University, priority 2017, dated 2023).
Values after ≈ are worked out from the molar mass of the structure shown. Where two headings read alike, the source gives them in different places.

Legend:
FmlHLD = target: T1, FmlHLD (Escherichia coli, UniProt P77588); test: biochemical; type: binding, E. coli; conditions: for inhibitory potency against FmlH, in words: ELISA-based competition assay
T1 construct: 6xHis (C); made in house; host or cells: E. coli C600, periplasm, pTRC99a
In short: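 Sialidase-treated bovine submaxillary mucin (ds-BSM) coated wells, BSA-blocked, then biotinylated FmlH^LD (20 μg/mL) with or without compound for 1 h at room temperature. Bound lectin detected by streptavidin-HRP/TMB, A450.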

[1] = Stability in simulated gastric fluid (SGF); type: in vitro ADME
Description: (§1) These compounds were assessed for their stability in simulated gastric fluid (SGF), simulated intestinal fluid (SIF), mouse liver microsomes, and blood plasma (Table 7). […] These findings are consistent with our earlier characterization of FimH antagonists (mannosides).

[2] = Stability in simulated intestinal fluid (SIF); type: in vitro ADME
Description: as §1

[3] = Mouse liver microsome stability; type: in vitro ADME
Description: as §1

Mouse plasma stability = type: in vitro ADME
Description: as §1

Kinetic solubility = type: physicochemical
[4] = Mouse pharmacokinetics, IP injection; conditions: 20 mg/kg IP
Description: These studies were conducted via 20 mg/kg intraperitoneal (IP) injection to inform planned future IP studies in murine studies of chronic UTI, which require a single IP dose of galactoside to persist in the plasma for 6 hours prior to measurement of bladder bacterial burdens (FIG. 17)^22.

[5] = Rat pharmacokinetics, plasma and urine, IV and PO; type: in vivo; conditions: for bioavailability: in vivo, 10 mg/kg PO vs 3 mg/kg IV, read-out: oral bioavailability (F); for bioavailability / renal clearance to the urine: rat
Description: In this example, the concentration of compounds 3086 and 3090 in rat plasma and urine following either a 10 mg/kg oral dose (PO; circular dots) or a 3 mg/kg intravenous dose (IV; square dots) was determined (FIG. 16, panel A (3086) and panel B (3090)). […] Thus, the metabolic stability of these compounds and clearance of these compounds has no relation to the permeability (oral or otherwise) of compounds. The highly polar nature of these molecules containing the sugar GalNAc and multiple polar functionalities precludes their permeability in the gut.

[6] = IC50 (μM), Table 6, sulfonamides 3078-3090
[7] = rat plasma, 10 mg/kg PO or 3 mg/kg IV

T1 sequence (P77588 25-182): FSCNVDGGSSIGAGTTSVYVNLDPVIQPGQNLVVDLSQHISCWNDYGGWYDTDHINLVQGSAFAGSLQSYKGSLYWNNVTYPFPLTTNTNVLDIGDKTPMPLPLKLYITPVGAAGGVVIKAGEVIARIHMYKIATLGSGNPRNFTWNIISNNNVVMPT

Q: For `CC(=O)N[C@@H]1[C@H](Oc2cccc(C#N)c2-c2cccc(NS(C)(=O)=O)c2)OC(CO)[C@H](O)[C@@H]1O` (stereo partly drawn) [Compound 3079, N-((2S,3S,4R,5R)-2-((6-cyano-3′-(methylsulfonamido)-[1,1′-biphenyl]-2-yl)oxy)-4,5-dihydroxy-6-(hydroxymethyl)tetrahydro-2H-pyran-3-yl)acetamide], which IC50 (FmlHLD; [6]) is on record?
A: The IC50 was 0.11 µM.

Q: What about the “SGF % remaining 6 h” value [1] of the same compound?
A: The value was 86.77%.

Q: What about the “SIF % remaining 2 h” value [2] of the same compound?
A: Its value is 100.00%.

Q: What about the “Mouse liver microsomes (t1/12 min)” value [3] of the same compound?
A: The value was over 145 min.

Q: What about the “Mouse plasma % remaining 2 h” value (Mouse plasma stability) of the same compound?
A: The value was 89.1%.

Q: What about the solubility kinetic (Kinetic solubility; kinetic from dmso stock) of the same compound?
A: The solubility kinetic was 196 µM (≈ 96.3 µg/mL).

Q: Which results are given for `Cc1cccc(O[C@@H]2OC(CO)[C@H](O)[C@H](O)[C@@H]2NC(=O)C(F)(F)F)c1-c1cccc(NS(C)(=O)=O)c1` (stereo partly drawn) [Compound 3088, N-((2S,3S,4R,5R)-4,5-dihydroxy-6-(hydroxymethyl)-2-((6-methyl-3′-(methylsulfonamido)-[1,1′-biphenyl]-2-yl)oxy)tetrahydro-2H-pyran-3-yl)-2,2,2-trifluoroacetimidic acid]?
A: IC50 (FmlHLD; [6]): 0.11 µM; SGF % remaining 6 h [1]: 90.95%; SIF % remaining 2 h [2]: 89.15%; Mouse liver microsomes (t1/12 min) [3]: >145 min; Mouse plasma % remaining 2 h (Mouse plasma stability): 88.9%; solubility kinetic (Kinetic solubility; kinetic from dmso stock): 164 µM (≈ 87.7 µg/mL)

Q: With `CC(=O)N[C@H]1[C@H](Oc2cccc(C)c2-c2cccc(NS(C)(=O)=O)c2)O[C@H](CO)[C@H](O)[C@@H]1O` [Compound 3084, N-((2S,3R,4R,5R,6R)-4,5-dihydroxy-6-(hydroxymethyl)-2-((6-methyl-3′-(methylsulfonamido)-[1,1′-biphenyl]-2-yl)oxy)tetrahydro-2H-pyran-3-yl)acetamide] as the compound, how does the IC50 (FmlHLD; IC50) read?
A: The IC50 was 0.12 µM.

Q: And the IC50 (FmlHLD; IC50 equated to a concentration, conversion of IC50 of 120 nM)?
A: Its IC50 is 0.12 µM.

Q: What about the “SGF % remaining 6 h” value [1] of the same compound?
A: Its value is 100.00%.

Q: What about the “SIF % remaining 2 h” value [2] of the same compound?
A: The value was 100.00%.

Q: And the “Mouse liver microsomes (t1/12 min)” value [3]?
A: The value was over 145 min.

Q: What about the “Mouse plasma % remaining 2 h” value (Mouse plasma stability) of the same compound?
A: Its value is 100.00%.

Q: What about the solubility kinetic (Kinetic solubility) of the same compound?
A: Its solubility kinetic is 195 µM (≈ 93.7 µg/mL).

Q: What about the Cmax [4] of the same compound?
A: Its Cmax is 7897 ng/mL.

Q: What about the “calculated AUC” value [4] of the same compound?
A: Its value is 6300 ng·h/mL.

Q: What about the “compound exposure at 8 h” value [4] of the same compound?
A: The value was “moderate compound exposure”.

Q: What about the “half-life, t1/2” value [4] of the same compound?
A: Its value is 1.13 h.

Q: Which results are given for `CC(=O)N[C@H]1[C@H](Oc2cccc(F)c2-c2cccc(NS(C)(=O)=O)c2)O[C@H](CO)[C@H](O)[C@@H]1O` [Compound 3080, N-((2S,3R,4R,5R,6R)-2-((6-fluoro-3′-(methylsulfonamido)-[1,1′-biphenyl]-2-yl)oxy)-4,5-dihydroxy-6-(hydroxymethyl)tetrahydro-2H-pyran-3-yl)acetamide]?
A: IC50 (FmlHLD; [6]): 0.15 µM; SGF % remaining 6 h [1]: 91.95%; SIF % remaining 2 h [2]: 93.79%; Mouse liver microsomes (t1/12 min) [3]: >145 min; Mouse plasma % remaining 2 h (Mouse plasma stability): 89.1%; solubility kinetic (Kinetic solubility): 197 µM (≈ 95.4 µg/mL)

Q: Which “inhibitory potency against FmlH, in words” value (FmlHLD) does the source give for `CC(=O)N[C@@H]1[C@H](Oc2cccc(C(F)(F)F)c2-c2cccc(NS(C)(=O)=O)c2)OC(CO)[C@H](O)[C@@H]1O` (stereo partly drawn) [Compound 3090, N-((2S,3S,4R,5R)-4,5-dihydroxy-6-(hydroxymethyl)-2-((3′-(methylsulfonamido)-6-(trifluoromethyl)-[1,1′-biphenyl]-2-yl)oxy)tetrahydro-2H-pyran-3-yl)acetamide] here?
A: The value was “highest potency of the compounds tested”.

Q: And the IC50 (FmlHLD; IC50)?
A: Its IC50 is 0.085 µM.

Q: And the “SGF % remaining 6 h” value [1]?
A: The value was 89.25%.

Q: And the “SIF % remaining 2 h” value [2]?
A: Its value is 91.9%.

Q: And the “Mouse liver microsomes (t1/12 min)” value [3]?
A: The value was over 145 min.

Q: What about the “Mouse plasma % remaining 2 h” value (Mouse plasma stability) of the same compound?
A: Its value is 92.2%.

Q: And the solubility kinetic (Kinetic solubility; kinetic from dmso stock)?
A: Its solubility kinetic is 197 µM (≈ 105 µg/mL).

Q: What about the bioavailability [5] of the same compound?
A: Its bioavailability is under 1%.

Q: What about the “renal clearance to the urine” value [5] of the same compound?
A: Its value is “low renal clearance to the urine”.

Q: And the half-life [5, 7]?
A: The half-life was 1.16 h.

Q: And the clearance ([5]; rat plasma, 10 mg/kg PO or 3 mg/kg IV, read-out: clearance (Cl))?
A: The clearance was 57 mL/min/kg.

Q: Which “inhibitory potency against FmlH, in words” value (FmlHLD) does the source give for `CC(=O)N[C@H]1[C@H](Oc2cccc(C)c2-c2cccc(NS(=O)(=O)C3CC3)c2)O[C@H](CO)[C@H](O)[C@@H]1O` [Compound 3086, N-((2S,3R,4R,5R,6R)-2-((3′-(cyclopropanesulfonamido)-6-methyl-[1,1′-biphenyl]-2-yl)oxy)-4,5-dihydroxy-6-(hydroxymethyl)tetrahydro-2H-pyran-3-yl)acetamide] here?
A: The value was “retain the same activity as the methyl sulfonamides”.

Q: And the IC50 (FmlHLD; [6])?
A: Its IC50 is 0.12 µM.

Q: What about the “SGF % remaining 6 h” value [1] of the same compound?
A: The value was 100.00%.

Q: And the “SIF % remaining 2 h” value [2]?
A: Its value is 100.00%.

Q: What about the “Mouse liver microsomes (t1/12 min)” value [3] of the same compound?
A: The value was over 145 min.

Q: And the “Mouse plasma % remaining 2 h” value (Mouse plasma stability)?
A: The value was 84.1%.

Q: And the solubility kinetic (Kinetic solubility)?
A: Its solubility kinetic is 196 µM (≈ 99.3 µg/mL).

Q: What about the bioavailability [5] of the same compound?
A: The bioavailability was under 1%.

Q: And the “renal clearance to the urine” value [5]?
A: Its value is “low renal clearance to the urine”.

Q: And the “clearance (Cl)” value [5, 7]?
A: The value was 43.8 mL/min/kg.

Q: What about the t1/2 [5, 7] of the same compound?
A: Its t1/2 is 1.46 h.
